Measured values taken from patent publication US20060127980A1, “Human excitatory amino acid transporter-2 gene promoter and uses thereof” (priority 2003, published 2006).

Experiments:
Format in all cases: cell-based, human
hEAAT2 promoter = hEAAT2 promoter luciferase assay of agents in PHFA (FIG. 10); details: PHFA passage #3; 10 μM
Experimental: (§1) FIG. 10. Effect of various agents on hEAAT2 promoter activity on primary human fetal astrocytes (PHFA). A: ceftriaxone; B: amoxicillin; C: chloramphenicol; D: thiamphenicol; E: vancomycin; F: glycine; G: glutamate; H: DMSO; I: dibutyryl cAMP. PHFA (passage #3) were seeded at 1×10^5 cells/35-mm plate. Twenty-four h later cells were untreated (CON) or received the indicated compound at a final concentration of 10 μM. Forty-eight h later the cells were transfected with a FL pGL3/EAAT2 luciferase reporter construct (5 μg) plus a pSVβGalactosidase construct (1 μg) using the calcium phosphate precipitation method (Su et al. 2003, Proc. Natl. Acad. Sci. USA 100:1955-1960). After an additional 48 h, cell lysates were prepared and luciferase activity was determined using the Luciferase Assay System Kit (Promega, E1501) and luminescence determined using a luminometer (Turner Designs, TD20/20) (Su et al. 2003, Proc. Natl. Acad. Sci. USA 100:1955-1960). Data presented are the average of 3 independent plates±S.D. Qualitatively similar results were obtained in 2 additional experiments.
as §1, with “Identification of Agents that Modulate hEAAT2 Promoter Activity. FIGS. 10-12 show the effects” for “FIG. 10. Effect”, “in PHFA (FIG. 10), PHFA-Im (FIG. 11) and H4 glioma (FIG. 12) cells. In the studies shown in FIG. 10,” for “on primary human fetal astrocytes (PHFA). A: ceftriaxone; B: amoxicillin; C: chloramphenicol; D: thiamphenicol; E: vancomycin; F: glycine; G: glutamate; H: DMSO; I: dibutyryl cAMP.”

hEAAT2 mRNA = assay: Northern blot of hEAAT2 mRNA in PHFA treated with modulators; details: 7-day treatment, EGF 30 ng/ml, TGF-α 30 ng/ml, dbcAMP 200 μM, bromo-cAMP 100 μM, TNF-α 200 U/ml
Experimental: (§2) FIG. 4A-D. Effect of modulators of hEAAT2 activity on hEAAT2 expression and hEAAT2 promoter activity in PHFA. A. A Northern analysis of hEAAT2 and GAPDH mRNA expression following treatment with EGF (30 ng/ml), TGF-α (30 ng/ml), dbcAMP (200 μM, bromo-cAMP (100 μM) or TNF-α (200 U/ml) for 7 days. B. Nuclear run-on assays determining the relative rates of hEAAT2 and GAPDH transcription as a function of 7-day treatment with the same concentrations of the indicated agents. C. A time course of mRNA expression of hEAAT2 and GAPDH following treatment with EGF, bromo-cAMP or TNF-α (same concentrations as in A.). D. Fold luciferase activity in PHFA transfected with flhEAAT2Prom-luc or various deletion mutants of hEAAT2 and non-transfected controls treated with the indicated compounds for four days.
Northern and Western Blotting Assays. Total cellular RNA was isolated by the guanidinium/phenol extraction method and Northern blotting was performed as described (Huang et al., 2001, Oncogene 20(48):7051-7063; Su et al., 2000, Oncogene 19(30):3411-3421; Su et al., 2001, Nucleic Acids Res 29(8):1661-1671). Western blotting assays were performed as described (Su et al., 1998, Proc Natl Acad Sci USA 95(24):14400-14405; Su et al., 2002, Oncogene 21(22):3592-602).
Positive and Negative Regulation of hEAAT2 Transcription, Promoter Activity and mRNA Levels in PHFA. Several enhancers of GLT-1 expression in rat astrocytes have been identified, including epidermal growth factor (EGF), transforming growth factor-α (TGF-α) and dibutyryl cyclic AMP (dbcAMP) (Swanson et al., 1997, J Neurosci 17(3):932-940; Zelenaia et al., 2000, Mol Pharmacol 57(4):667-678). Based on these considerations, experiments were performed to determine if these agents similarly modify human hEAAT2 expression in PHFA. Consistent with previous observations in rat astrocytes, 7-day treatment with EGF, TGF-α, and two analogs of cAMP, dbcAMP and bromo-cAMP, stimulated hEAAT2 mRNA expression in PHFA, whereas TNF-α decreased expression (FIG. 4B). […] In contrast, TNF-α decreased expression by 48 h (FIG. 4C).

hEAAT2 transcription = assay: Nuclear run-on assay of hEAAT2 transcription in PHFA; details: 7-day treatment
Experimental: as §2
Primer Extension Analysis and Nuclear Run-on Assays. Primer extension assays were performed as described (Su et al., 2000, Oncogene 19(30):3411-3421). A primer with the sequence 5′-[…]-3′ (SEQ ID NO:6) complementary to the 5′ UTR of the hEAAT2 cDNA was used for this assay. Nuclear run-on assays were performed as described (Su et al., 1997, Proc Natl Acad Sci USA 94(17):9125-9130).
To examine whether stimulation of hEAAT2 expression involves transcriptional changes, nuclear run-on assays were performed.

CCCC(=O)Nc1ncnc2c1ncn2[C@@H]1O[C@@H]2COP(=O)(O)O[C@H]2[C@H]1OC(=O)CCC [dbcAMP, dibutyryl cyclic AMP]
hEAAT2 promoter activity (hEAAT2 promoter): potent stimulators
hEAAT2 mRNA expression (hEAAT2 mRNA): stimulated
relative rate of transcription of hEAAT2 RNA compared with GAPDH (hEAAT2 transcription): elevated
